We go through three molecules from patent publication US5741671A, “Isolation cloning and expression of transmembrane water channel aquaporin 1(AQP1)” (The Johns Hopkins University, priority 1995, dated 1998).

One assay concerns human RBC. The following applies: cited from earlier work.
The next assay deals with T1, AQP1 (Homo sapiens, UniProt P29972).
T1 construct: Human erythrocytes were obtained from blood-bank units stored up to 5 weeks; from tissue; host or cells: human erythrocytes (blood-bank units; small-scale preparations from freshly drawn whole blood)
T1 sequence (P29972 2-269 limits assumed): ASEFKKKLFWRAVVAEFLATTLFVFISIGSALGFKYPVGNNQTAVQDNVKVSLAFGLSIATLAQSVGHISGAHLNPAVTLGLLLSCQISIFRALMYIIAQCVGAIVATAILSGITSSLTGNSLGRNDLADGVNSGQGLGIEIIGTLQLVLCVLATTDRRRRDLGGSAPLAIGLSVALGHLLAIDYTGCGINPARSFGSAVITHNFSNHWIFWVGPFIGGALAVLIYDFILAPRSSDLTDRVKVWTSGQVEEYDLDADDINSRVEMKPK
Put plainly: Stopped-flow osmotic water permeability of AQP1 proteoliposomes. The note with it: CHIP28 proteoliposomes. Type of assay: biochemical. From the text:
Preparation AQP1-containing proteoliposomes. Crude Escherichia coli lipid was obtained from Avanti Polar Lipids, Inc., and neutral lipid was removed by acetone/ether wash (Ambudkar & Maloney, 1986, Methods. Enzymol. 125:558-563). The purified E. coli bulk phospholipid is composed of phosphalidylethanolamine (70%), phosphatidylglycerol (15%), and cardiolipin (15%) (Chen & Wilson, […], Proc. Natl. Acad. Sci. USA 83:2652-2656). E. coli bulk phospholipid was employed since it has previously been used for functional reconstitution of several transport proteins including the glucose transporter of RBCs (Maloney & Ambudkar, 1989, Arch. Biochem. Biophys. 269:1-10; Chen et al., 1986, Proc. Natl. Acad. Sci. USA 83:2652-2656).
Highly purified AQP1 protein was incorporated into proteoliposomes by detergent dilution; control liposomes were formed in an identical manner without AQP1 protein.
Purified AQP1 was stored overnight at 0° C. or frozen for several days at -80° C. prior to reconstitution. Reconstitution into proteoliposomes was carried out in a final volume of 1 ml containing 60-90 μg of purified AQP1 protein in chromatography buffer, 9 mg of bath-sonicated E. coli phospholipid, 1.25% (w/v) octyl glucoside, and 50 mM Tris-HCl (pH 7.5). The mixture was briefly blended on a vortex mixer and incubated for 20 minutes on ice. Proteoliposomes (or liposomes prepared without protein) were formed at room temperature by rapidly injecting the mixture into 25 ml of buffer A [50 mM MOPS, pH 7.5, 150 mM N-methyl-D-glucamine (NMDG) chloride also containing 10-15 mM carboxyfluorescein, 1 mM dithiothreitol, and 0.5 mM PMSF]. For the measurement of proton permeability, proteoliposomes and liposomes were loaded with buffer B (5 mM MOPS, pH 7.5, 150 mM KCl, 0.5 mM carboxyfluorescein, 1 mM dithiothreitol, and 0.5 mM PMSF). The suspension was incubated for 20 minutes at room temperature. Proteoliposomes or liposomes were collected by centrifugation for 1 hour at 123000×g in a Beckman Type 42.1 rotor at 4° C. The pellet was resuspended in 8 ml of buffer A or B and then centrifuged for 1 hour at 152000×g in a Beckman Type 50 Ti rotor. Proteoliposomes or liposomes were resuspended in 300 μl of buffer A or B and stored at 4° C. for 16-24 hours. Typically 50% (54±6%, n=5) of the AQP1 protein and 70% of the phospholipid were recovered in proteoliposomes. The lipid to protein ratio was in the range of 120:1 to 219:1. […] Protein and phospholipid were measured as described by Ambudkar & Maloney (J. Biol. Chem., 1986, 261:10079-10086).
(§1) Permeability measurements. Membrane permeability measurements (Pf) were measured by exposing AQP1 proteoliposomes or control liposomes to an osmotic gradient by rapid mixing with an equal volume of another solution containing buffer A plus sufficient sucrose to increase osmolality in the mixed solutions to a value 120% of that in the original solution. This was performed with a stopped-flow fluorometer (SF.17MV, Applied Photophysics, Leatherhead, U.K.) with a measured dead time of 0.7 ms. […] Extravesicular carboxyfluorescein fluorescence was completely quenched using anti-fluorescein antibody (Harris et al., 1990, Am. J. Physiol. 259:F366-F371). Within the range of osmolalities used in these experiments, the vesicles acted as perfect osmometers, and relative volume (absolute volume divided by initial volume) was linearly related to relative fluorescence (absolute fluorescence divided by initial fluorescence). […]

Assay [1] can be described thus: Stopped-flow osmotic water permeability of control liposomes. Type of assay: biochemical. The note with it: mercurial reagent 1 mM. The procedure:
Purified AQP1 was stored overnight at 0° C. or frozen for several days at -80° C. prior to reconstitution. Reconstitution into proteoliposomes was carried out in a final volume of 1 ml containing 60-90 μg of purified AQP1 protein in chromatography buffer, 9 mg of bath-sonicated E. coli phospholipid, 1.25% (w/v) octyl glucoside, and 50 mM Tris-HCl (pH 7.5). The mixture was briefly blended on a vortex mixer and incubated for 20 minutes on ice. […] Protein and phospholipid were measured as described by Ambudkar & Maloney (J. Biol. Chem., 1986, 261:10079-10086).
as §1, with “259:F366-F371).” for “259:F366-F371). Within the range of osmolalities used in these experiments, the vesicles acted as perfect osmometers, and relative volume (absolute volume divided by initial volume) was linearly related to relative fluorescence (absolute fluorescence divided by initial fluorescence).”

The next assay has as its target T2, CHIP28 water channel (Homo sapiens, UniProt P29972).
T2 construct: Human erythrocytes were obtained from blood-bank units stored up to 5 weeks; from tissue; host or cells: human erythrocytes (blood-bank units; small-scale preparations from freshly drawn whole blood)
T2 sequence (P29972 2-269 limits assumed): T1 sequence (P29972 2-269 limits assumed)
Put plainly: Urea permeability of CHIP28 proteoliposomes. The following applies: internal urea 374 mM, external urea 187 mM. Type of assay: biochemical. The source says:
The general formula defining solute exit from a vesicle is
Jurea =d(urea)/dt=Purea (SA)ΔC (2)
where Jurea is urea flux, Purea is the permeability coefficient for urea, SA is the surface area of the vesicle, and ΔC is the difference in urea concentration between the inside and outside of the vesicle, which diminishes as the system reaches equilibrium. If
Using parameters from the single-exponential curve fit to the data and the relationship between relative volume and relative fluorescence, equation 4 was solved for Purea using MathCAD.
Exclusion of urea. To determine the selectivity of the CHIP28 water channel, CHIP28-containing liposomes were loaded with urea at a level similar to the measured Km for urea transport in RBCs and were abruptly mixed with solutions of identical osmolality containing half the urea concentration. Urea permeability was determined by monitoring the relative fluorescence of entrapped carboxyfluorescein during the urea efflux. Solutions inside and outside the vesicle were of equal osmolality but differed in the concentrations of permeant and impermeant solutes (Grossman et al., 1992, Am. J. Physiol., in press). Thus, internal urea concentration was 374 mM and external urea concentration was 187 mM with the remaining osmolality balanced by 187 mM sucrose. […]

`O=C(CCc1ccc(O)cc1)c1c(O)cc(O)cc1O` [Phloretin]: in the assay with human RBC, the “effect on urea flux” value was “inhibits urea flux” and the “effect on water flux” value was “without altering water flux”.

For `O=S(=O)([O-])c1cc[c]([Hg][Cl])cc1` [pCMBS, p-chloromercuribenzene sulfonate], the “Pf after mercurial treatment” value on AQP1 (1 mM pCMBS, 25 minutes at 37° C.) was 0.009±0.005 cm/s. On AQP1 (1 mM, 37° C.), the “extent of inhibition of Pf at 5 and 10 minutes” value is given as “partial”. In addition, in assay [1], the “effect on the Pf of control liposomes” value is “Neither pCMBS nor HgCl2 had any effect”.

B1: AQP1: Mr 28,000 transmembrane water channel protein of human erythrocytes, 269 amino acids (protein)
chain: T1 sequence (P29972 2-269 limits assumed)
B1: the “urea permeability versus control liposomes” value with CHIP28 water channel was “did not augment urea permeability”.
